According to patent publication US9115169B2, “Method of treating tumors” (Lytix Biopharma AS, priority 2000, dated 2015):
≈ marks a conversion by molar mass, not a printed value. *1 amine or outer side, *2 acyl side, *3 side chain or, on linkers, in order; H or OH if unused. Where a SMILES comes first, the peptide text is derived from it. The star is where a group is joined. Ethylenediamine = C(CN[*:2])N[*:1]; Cbz = O=C(OCc1ccccc1)*; OBn = c1ccc(CO*)cc1

Key:
MRSE ATCC 27626 = conditions: ATCC 27626
Method: (§1) All strains were stored at −70° C. […] All assays were performed in duplicate.

[1] = system: Escherichia coli ATCC 25922; conditions: ATCC 25922
MRSA ATCC 33591 = conditions: ATCC 33591
Method: as §1

[2] = system: Staphylococcus aureus ATCC 25923; conditions: ATCC 25923
[3] = system: Escherichia coli ATCC 25922; conditions: ATCC 25922; remark: listed apart in the source
[4] = system: Staphylococcus aureus ATCC 25923; conditions: ATCC 25923; remark: listed apart in the source

C[C@H](N)C(=O)N[C@@H](CCCNC(=N)N)C(=O)OCc1ccc(-c2ccccc2)cc1 [AROBip]
Minimum inhibitory concentration MRSE (MRSE ATCC 27626): 25 µg/mL (≈ 60.8 µM) | Minimum inhibitory concentration E. coli [1]: 300 µg/mL (≈ 729 µM) | Minimum inhibitory concentration MRSA (MRSA ATCC 33591): 37.5 µg/mL (≈ 91.1 µM) | Minimum inhibitory concentration S. aureus [2]: 100 µg/mL (≈ 243 µM)

N=C(N)NCCC[C@H](NC(=O)[C@@H](N)Cc1ccc(-c2ccccc2)cc1)C(=O)OCc1ccc(-c2ccccc2)cc1 [BipROBip]
Minimum inhibitory concentration MRSE (MRSE ATCC 27626): 5.0 µg/mL (≈ 8.87 µM) | Minimum inhibitory concentration E. coli [1]: 50 µg/mL (≈ 88.7 µM) | Minimum inhibitory concentration MRSA (MRSA ATCC 33591): 5.0 µg/mL (≈ 8.87 µM) | Minimum inhibitory concentration S. aureus [2]: 5.0 µg/mL (≈ 8.87 µM)

N=C(N)NCCC[C@H](NC(=O)C1CCCCC1)C(=O)N[C@@H](Cc1c[nH]c2ccccc12)C(=O)OCc1ccccc1 [Chx RW OBz, Chx-Arg-Trp-OBzl]
MIC E. coli [1]: 200 (>200) μg/ml | MBC E. coli [3]: 200 (>200) μg/ml | MIC S. aureus [2]: 75 (75) μg/ml | MBC S. aureus [4]: 75 (75) μg/ml

COC(=O)[C@H](CCCNC(=N)N)NC(=O)[C@H](Cc1c[nH]c2ccccc12)NC(=O)C1CCCCC1 [Chx WR OMe, Chx-Trp-Arg-OMe]
MIC E. coli [1]: >200 (>200) μg/ml | MBC E. coli [3]: >200 (>200) μg/ml | MIC S. aureus [2]: >200 (>200) μg/ml | MBC S. aureus [4]: >200 (>200) μg/ml

N=C(N)NCCC[C@H](NC(=O)[C@@H](N)Cc1ccccc1)C(=O)OCc1ccc(-c2ccccc2)cc1 [FROBip]
Minimum inhibitory concentration MRSE (MRSE ATCC 27626): 5 µg/mL (≈ 10.3 µM) | Minimum inhibitory concentration E. coli [1]: 100 µg/mL (≈ 205 µM) | Minimum inhibitory concentration MRSA (MRSA ATCC 33591): 12.5 µg/mL (≈ 25.6 µM) | Minimum inhibitory concentration S. aureus [2]: 12.5 µg/mL (≈ 25.6 µM)

N=C(N)NCCC[C@H](NC(=O)Cc1c[nH]c2ccccc12)C(=O)N[C@@H](Cc1c[nH]c2ccccc12)C(=O)NCCNC(=O)OCc1ccccc1 [Ind RW DaeZ, Ind-Arg-Trp-Dae-Z]
MIC E. coli [1]: >200 (>200) μg/ml | MBC E. coli [3]: >200 (>200) μg/ml | MIC S. aureus [2]: 75 (75) μg/ml | MBC S. aureus [4]: 75 (75) μg/ml

N=C(N)NCCC[C@H](NC(=O)Cc1c[nH]c2ccccc12)C(=O)N[C@@H](Cc1c[nH]c2ccccc12)C(=O)OCc1ccccc1 [Ind RW OBz, Ind-Arg-Trp-OBzl]
MIC E. coli [1]: >200 (>200) μg/ml | MBC E. coli [3]: >200 (>200) μg/ml | MIC S. aureus [2]: 20 (20) μg/ml | MBC S. aureus [4]: 20 (20) μg/ml

COC(=O)[C@H](CCCNC(=N)N)NC(=O)[C@H](Cc1c[nH]c2ccccc12)NC(=O)Cc1c[nH]c2ccccc12 [Ind WR OMe, Ind-Trp-Arg-OMe]
MIC E. coli [1]: >200 (>200) μg/ml | MBC E. coli [3]: >200 (>200) μg/ml | MIC S. aureus [2]: >200 (>200) μg/ml | MBC S. aureus [4]: >200 (>200) μg/ml

NCCCC[C@H](N)C(=O)N[C@@H](Cc1ccccc1)C(=O)OCc1ccccc1 [KF-Obzl]
MIC MRSE (MRSE ATCC 27626): 150 µg/mL (≈ 391 µM) | MIC E. coli [1]: >300 µg/mL | MIC MRSA (MRSA ATCC 33591): 300 µg/mL (≈ 782 µM) | MIC S. aureus [2]: 300 µg/mL (≈ 782 µM)

NCCCC[C@H](N)C(=O)N[C@@H](Cc1c[nH]c2ccccc12)C(=O)OCc1ccccc1 [KW-Obzl] (H-Lys-Trp-OBn; N-terminus assumed)
MIC MRSE (MRSE ATCC 27626): 25 µg/mL (≈ 59.2 µM) | Minimum inhibitory concentration MRSE (MRSE ATCC 27626): 25 µg/mL (≈ 59.2 µM) | MIC E. coli [1]: >300 µg/mL | Minimum inhibitory concentration E. coli [1]: >300 µg/mL | MIC MRSA (MRSA ATCC 33591): 37.5 µg/mL (≈ 88.8 µM) | Minimum inhibitory concentration MRSA (MRSA ATCC 33591): 37.5 µg/mL (≈ 88.8 µM) | MIC S. aureus [2]: 37.5 µg/mL (≈ 88.8 µM) | Minimum inhibitory concentration S. aureus [2]: 37.5 µg/mL (≈ 88.8 µM)

N=C(N)NCCC[C@H](N)C(=O)N[C@@H](Cc1c[nH]c2ccccc12)C(=O)NCCNC(=O)OCc1ccccc1 [RW DaeZ, H-Arg-Trp-Dae-Z] (H-Arg-Trp-{Ethylenediamine-Cbz})
MIC E. coli [1]: >200 (>200) μg/ml | MBC E. coli [3]: >200 (>200) μg/ml | MIC S. aureus [2]: 50 µg/mL (≈ 93.2 µM) | MBC S. aureus [4]: 75 µg/mL (≈ 140 µM)

COC(=O)[C@H](Cc1c[nH]c2ccccc12)NC(=O)[C@@H](N)CCCNC(=N)N [RW-OMe] (H-Arg-Trp-OMe; N-terminus assumed)
MIC MRSE (MRSE ATCC 27626): 200.0 µg/mL (≈ 534 µM) | MIC E. coli [1]: >300.0 µg/mL | MIC MRSA (MRSA ATCC 33591): >300.0 µg/mL | MIC S. aureus [2]: >300.0 µg/mL
